Assay results reported in patent US10149476B2, “Pesticidal plant extract containing loline derivatives” (GRASSLANZ TECHNOLOGY LTD, priority 2007, dated 2018).
Where “and” joins values, the source holds several entries; their conditions need not be identical. Equal values may be shown once.

Experiments:
[1] = Uptake of pyrrolizidine alkaloids into endophyte free Ryegrass plants after watering composition onto roots; assay type: in vivo; conditions: leaf sub-sample after 21 days; for Pyrrolizidine Alkaloid Content, Average: average of 5 endophyte free Ryegrass plants, Grinding Number 1 composition watered on roots; for Pyrrolizidine Alkaloid Content: individual endophyte free Ryegrass plants 1-5, 100 ml Grinding Number 1 composition watered on roots every second day
Protocol: (§1) Pesticidal composition from Grinding Number 1 of Example 1 was watered onto the roots of endophyte free Fescue and Ryegrass plants grown in a glasshouse under controlled conditions into silica sand filled pots. Control plants were included in the plant samples and were watered with nil endophyte ground extract containing no pesticidal composition. Trial plants were each watered with 100 ml of each composition every second day with nutrient watered on alternate days. After 21 days, a sub-sample of leaf material was analysed to determine the uptake of pesticidal composition into the plants tested.
(§2) The results shown below in Table 2 for endophyte free Fescue plants and Table 3 for endophyte free Ryegrass plants clearly indicate transfer of the measured pyrrolizidine alkaloid compounds from the composition and into the plants via their root system

[2] = Uptake of pyrrolizidine alkaloids into cabbage plants grown in silica sand; assay type: in vivo, Cabbage brassica; conditions: cabbage treated with composition of Grind Number 3 watered onto pots
Protocol: Cabbage brassica were tested with the pesticidal composition of Grind Number 3 of Example 1 watered onto the pots in which the trial cabbage plants were grown in silica sand.

[3] = Uptake of pyrrolizidine alkaloids into endophyte free Fescue plants after watering composition onto roots; assay type: in vivo; conditions: leaf sub-sample after 21 days; for Pyrrolizidine Alkaloid Content, Average: average of 5 endophyte free Fescue plants, Grinding Number 1 composition watered on roots; for Pyrrolizidine Alkaloid Content: individual endophyte free Fescue plants 1-5, 100 ml Grinding Number 1 composition watered on roots every second day
Protocol: as §1, §2

SMILES	Pyrrolizidine Alkaloid Content, Average [1]	Pyrrolizidine Alkaloid Content [1]	Pyrrolizidine Alkaloid Content [2]	Pyrrolizidine Alkaloid Content, Average [3]	Pyrrolizidine Alkaloid Content [3]
CC(=O)N(C)[C@@H]1[C@H]2[C@@H]3CCN2C[C@H]1O3 [NAL, N-acetylloline]	92 mg/kg or ppm	40 mg/kg or ppm and 37 mg/kg or ppm and 214 mg/kg or ppm and 87 mg/kg or ppm and 84 mg/kg or ppm	6 mg/kg or ppm	75 mg/kg or ppm	56 mg/kg or ppm and 38 mg/kg or ppm and 119 mg/kg or ppm and 69 mg/kg or ppm and 95 mg/kg or ppm
CC(=O)N[C@H]1[C@H]2[C@@H]3CCN2C[C@H]1O3 [NANL, N-acetylnorloline]	14 mg/kg or ppm	0 mg/kg or ppm (3×) and 44 mg/kg or ppm and 27 mg/kg or ppm	0 mg/kg or ppm	0 mg/kg or ppm	0 mg/kg or ppm
CN(C=O)C1C2[C@@H]3CCN2C[C@H]1O3 (stereo partly drawn) [NFL, N-formylloline]	644 mg/kg or ppm	352 mg/kg or ppm and 340 mg/kg or ppm and 1152 mg/kg or ppm and 697 mg/kg or ppm and 680 mg/kg or ppm	148 mg/kg or ppm	479 mg/kg or ppm	405 mg/kg or ppm and 382 mg/kg or ppm and 648 mg/kg or ppm and 479 mg/kg or ppm and 482 mg/kg or ppm
